For data set [1], the system named is rat model of lithium-pilocarpine-induced epilepsy. In words: Survival of SE model rats after drug intervention in the acute phase. The settings on record: 50 mg/kg ip; Logrank test P<0.05 vs model; FIG. 1. It counts as in vivo, Sprague Dawley (SD) rats. The procedure: Methylscopolamine bromide, lithium chloride, and pilocarpine were weighed, and experimental drugs were dissolved to working concentrations (100 mg/mL of lithium chloride solution, 1 mg/mLof methylscopolamine bromide solution, and 20 mg/mL of pilocarpine solution) with 0.9% saline. Rats were injected intraperitoneally with lithium chloride (a dose of 127 mg/kg), and 18-20 h later, scopolamine methylbromide (a dose of 1 mg/kg) was injected intraperitoneally. […] Thereafter, an additional dose of 10 mg/kg pilocarpine was injected intraperitoneally every 30 min until the onset of a grade IV or higher status epilepticus (SE)-like seizure without significant intermittent intervals, with a maximum dose of 60 mg/kg.
The rats with successful modeling were randomly divided into three groups, namely a model group, a CTMB group, and a sodium valproate (VPA) group. Administration was carried out after 1 h of SE onset, with a blank emulsion given by intraperitoneal injection in the model group, a CTMB emulsion injection at a dose of 50 mg/kg given by intraperitoneal injection in the CTMB group, and sodium valproate at a dose of 300 mg/kg given by oral gavage in the VPA group. […]
The differences between the survival curves of the rats in each group were analyzed by a Logrank test.

Data set [2] concerns ischemic stroke induced by the filament technique in rats. In words: Long-term ischemic stroke (MCAO), bonding (adhesive tape) test. It counts as in vivo. The settings on record: for Time for rats to perceive tape, Day 1 / Time for rats to perceive tape, Day 4 / Time for rats to perceive tape, Day 7 / Time for rats to perceive tape, Day 10 / Time for rats to perceive tape, Day 14 / Time of removing tape, Day 1 / Time of removing tape, Day 4 / Time of removing tape, Day 7 / Time of removing tape, Day 10 / Time of removing tape, Day 14: cut-off 60 s. The procedure:
The rats were randomly divided into a sham operation group (Sham group, given a blank emulsion with a volume equal to that of the high-dose CTMB group), a model group (Vehicle group, given a blank emulsion with a volume equal to that of the high-dose CTMB group), a low-dose CTMB group (CTMB-L group, 10 mg/kg), a high-dose CTMB group (CTMB-H group, 20 mg/kg), and an edaravone dexborneol injection concentrated solution group (EDB group, commercially available, 3 mg/kg). 10 rats were included in each group, which were administered by intraperitoneal injection. It should be noted that in the experiment, the mode of administration for rats was intraperitoneal injection, and a ratio of the effective dose of CTMB, the active ingredient in the emulsion injection, to the unit mass of the human body was within a range of 0.2 mg-4.0 mg/kg, which referred to the ratio of the effective dose of CTMB, the active ingredient in the emulsion injection, to the unit mass of the human body during intravenous infusion, which was extrapolated from the effective dose of the rats. Considering the different bioavailability, peak concentration, and peak time of the drug due to different species and different modes of administration, the effective dose of the active ingredient CTMB in the emulsion injection to the unit mass of human body was finally determined to be 0.2 mg-4.0 mg/kg through conversion.
The rats were fasted for 12 h before procedure, and the rats were anesthetized with 10% chloral hydrate (350 mg/kg, i.p.). The rats were fixed in the supine position, and the body temperature was maintained at about 37° C. For neck preparation, a median neck incision was made, the muscle and fascia were separated along the inner edge of the sternocleidomastoid muscle to expose the right side, the common carotid artery (CCA), external carotid artery (ECA), and internal carotid artery (ICA) were separated bluntly, and the lines were disposed of proximally in the CCA proximal end, ICA, and ECA for backup. The CCA proximal end and ECA were ligatured, and an arterial clip was used to temporarily close the ICA, then a small hole was poked at a position of CCA having about 4 mm from the bifurcation with a needle. The filament was inserted into the ICA through the CCA, the arterial clipped on ICA was loosened, and the filament was slowly advanced. When the mark on the filament reached the bifurcation and a slight resistance was felt, the thin wire at ICA was tightened, and saline was used to clean the wound and then suture was performed. The sham procedure was the same as the experimental group except that no filament was inserted. After anesthesia, the rats were raised normally.
Rats were trained in adhesion experiments for one week before modeling, and those that could successfully tear off the tape within 10 s were screened for modeling. After 2 h of modeling by the filament technique, the rats were immediately administered with the drug according to the grouped administration plan. Thereafter, the rats were continued to be administered with the drug once a day for 14 days, and adhesion experiments were performed on days 1, 4, 7, 10, and 14 to assess sensory and motor nerve function. The specific operation was as follows. A circular tape with a diameter of about 12 mm was adhered to the plantar surface of the left forelimb of the rat, and the sensation and removal time of the tape was recorded. If the mice were unable to perceive and/or remove the tape within 60 s, 60 s were recorded.

A further data set concerns Malondialdehyde (MDA). In words: MDA content in striatum of PD mice. The class given is in vivo, C57 mice. The settings on record: Group D, CTMB 20 mg/kg ip, after 4 weeks, injured side. On the procedure: (§1) The mice were randomly divided into a sham operation group (group S, given a blank emulsion with a volume equal to that of the administered group), a model group (group M, given a blank emulsion with a volume equal to that of the administered group), a CTMB group (20 mg/kg, group D), and a levodopa group (levodopa: benserazide hydrochloride=4:1, 12 mg/kg, group L), each group included 10-12 mice, and all of them were administered intraperitoneally.
(§2) Malondialdehyde (MDA) is a commonly used indicator of membrane lipid peroxidation, reduced glutathione (GSH) is one of the most commonly used non-enzymatic indicators of antioxidant substances, and superoxide dismutase (SOD) is a common indicator of antioxidant enzymes. After completing the evaluation of motor function after 4 weeks of drug administration, the mice were deeply anesthetized and perfused with 20 mL of saline via the heart. The brain was rapidly severed to isolate the striatal region on the injured side (right side), weighed, and placed into a 1.5 mL EP tube, and homogenized at low temperature by adding phosphate-buffered saline (PBS) at the ratio of a weight of animal tissues (g) to a volume of homogenization medium (mL) of 1:9. […]

Data set [3] has as its system reduced glutathione (GSH). In words: GSH content in striatum of PD mice. The class given is in vivo, C57 mice. The settings on record: Group D, CTMB 20 mg/kg ip, after 4 weeks, injured side. On the procedure:
as §1, §2

The source of these data is patent US20250270159A1, “1-(CYCLOBUTANEMETHYLIDENE)-2, 4, 5-TRIMETHOXYBENZENE COMPOUND AND PREPARATION METHOD AND USE THEREOF” (CHENGDU XINRUI TAIKANG TECHNOLOGY CO., LTD., priority 2023, published 2025).

Consider `COc1cc(OC)c(OC)cc1C=C1CCC1` [CTMB, 1-(cyclobutylidenemethyl)-2,4,5-trimethoxybenzene], for which the “survival rate of the SE model rats” value in data set [1] was “significantly increases the survival rate”. Besides, the “toxic side effects associated with administration” value in data set [2] (10 and 20 mg/kg ip once a day for 14 days, bonding test) is “No toxic side effects”. Besides, in data set [2] (CTMB-H 20 mg/kg ip once a day), the “Time for rats to perceive tape, Day 1” value is on record as 31.17 ± 24.57^#^ s; the “Time for rats to perceive tape, Day 4” value is 25.33 ± 23.41^#^ s; the “Time for rats to perceive tape, Day 7” value is on record as 20.50 ± 22.99^#^ s; the “Time for rats to perceive tape, Day 10” value amounted to 7.00 ± 4.56 s. In data set [2] (CTMB-H 20 mg/kg ip once a day), the “Time for rats to perceive tape, Day 14” value came to 8.44 ± 11.94 s; the “Time of removing tape, Day 1” value came to 53.67 ± 16.66 s; the “Time of removing tape, Day 4” value is listed as 51.33 ± 17.14 s; the “Time of removing tape, Day 7” value was 48.67 ± 16.55 s. In data set [2] (CTMB-H 20 mg/kg ip once a day), the “Time of removing tape, Day 10” value turned out to be 31.11 ± 19.76 s and the “Time of removing tape, Day 14” value is reported as 33.22 ± 23.03 s. For the same compound, in data set [2] (CTMB-L 10 mg/kg ip once a day), the “Time for rats to perceive tape, Day 1” value was 42.25 ± 25.53 s; the “Time for rats to perceive tape, Day 4” value is given as 27.50 ± 28.05 s; the “Time for rats to perceive tape, Day 7” value is listed as 28.20 ± 28.97^#^ s; the “Time for rats to perceive tape, Day 10” value stood at 27.11 ± 30.06 s. Besides, in data set [2] (CTMB-L 10 mg/kg ip once a day), the “Time for rats to perceive tape, Day 14” value is 10.44 ± 12.44 s; the “Time of removing tape, Day 1” value amounted to 50.75 ± 17.65 s; the “Time of removing tape, Day 4” value turned out to be 36.20 ± 24.17 s; the “Time of removing tape, Day 7” value is 38.60 ± 26.15^#, * s. In data set [2] (CTMB-L 10 mg/kg ip once a day), the “Time of removing tape, Day 10” value came out at 26.63 ± 27.80 s and the “Time of removing tape, Day 14” value is given as 26.22 ± 21.48 s. The MDA with Malondialdehyde (MDA) is recorded as 2.04 ± 0.57 μmol/g protein. The compound also showed a GSH in data set [3] of 46.38 ± 6.94 μmol/g protein.
